Test results from patent US9040261B2, “Compounds as L-cystine crystallization inhibitors and uses thereof” (NEW YORK UNIVERSITY, priority 2009, dated 2015).
Counter-ions that a name gives are not always drawn.

What was measured:
[1] = Real time in situ AFM step velocity measurements, static conditions; settings: 5 g/L cystamine
Method: A Digital Instruments (Santa Barbara, Calif.) Nanoscope IIIa Multimode system was used for topographical and lattice imaging. All measurements were performed in contact mode using Veeco NP_B Si3N4 cantilever tips with a spring constant of 0.12N/m (triangular, 196 μm length, 41 μm width) on a glass cantilever holder, and a liquid cell was created for in situ step velocity measurements. All L-cystine crystals for AFM measurements were prepared by method 1. Crystals were transferred onto an AFM specimen disk coated with partially cured (1 hr) UV-curable optical cement (Type SK-9, EMS Acquisition Corp.) by gently pressing the disk against hexagonal platelets or L-cystine needles isolated by filtration (Whatman Nuclepore membrane, 8 μm). The (0001) face of hexagonal platelets was exposed normal to the disk for AFM analysis with growth occurring along equivalent {1010} faces in the lateral directions, while the sides of L-cystine needles were exposed normal to the disc. The partially cured polymer with adhered crystals was completely cured by additional UV radiation (2 hrs) prior to analysis. Measurements of individual step heights for hexagonal L-cystine crystals were acquired in air (contact mode) at a scan rate of 1.00 Hz and 256 samples per line over a 15×15 μm^2 surface area. Integral and proportional gains were set to the highest possible values without obtaining feedback. Four hexagonal crystals (5 areas per crystal) were analyzed for statistical step height distributions, which were calculated from >10^3 individual steps. Lattice-resolved images of crystal surfaces were acquired in water (contact mode) using a scan rate of 112 Hz over a 12×12 nm^2 area.
Real time in situ step velocity measurements of L-cystine growth were assessed along six structurally-equivalent {1010} faces of the hexagonal structure. A liquid cell was created with the glass cantilever tip holder, and working solutions were injected through a 1-mL syringe. Prior to injecting the growth medium (i.e. supersaturated L-cystine solution), crystals were etched with deionized water in the fluid cell for one hour to remove amorphous deposits or impurities that may be present on the surface. Supersaturated solutions (0.5 g/L) were generated by adding L-cystine to deionized water, boiling the solution on a heating mantle for 20 min to completely dissolve the solute, and allowing the solution to cool for 20 min on the heating mantle before transferring the solution (via syringe) to the AFM fluid cell. […]
The effect of additives on crystal growth rates was investigated. […] For each measurement, growth was first assessed in the absence of additive, then in the presence of additive on the identical area of the crystal surface to analyze relative changes in step velocity. […]

[2] = Bulk crystallization of L-cystine in the presence of additives (mass yield); settings: 2 mg/L additive, 0.7 g/L L-cystine (pH 6.8); no additive 80; approximate error ±8%
Method: Alternately, the hexagonal crystals can be obtained by crystallization performed near neutral pH (Sa) The hexagonal form was crystallized from a supersaturated L-cystine solution prepared by adding 70 mg of L-cystine to 100 mL of deionized water (3 mM), and heating under reflux at 100° C. for 20 min with stirring to completely dissolve L-cystine. […] This concentration was used for bulk crystallization studies in the presence of additives so that a measurable amount of bulk crystals could be obtained in a reasonable time. The solution was then allowed to cool slowly with stirring for 75 min. 30 mL aliquots were transferred to separate glass containers, which were then sealed to prevent evaporation and exposure to airborne particulates and stored for 72 hours at room temperature without stirring. […] The crystals retrieved in this manner were used for AFM studies by mounting individual crystals according to the procedure described below.
Various proteins, poly-amino acids, and molecular mimics of L-cystine were examined as additives. The aforementioned procedure for hexagonal platelet crystallization was repeated. Following the 75 min cooling period, prior to any observable crystallization, the additive was added to the supersaturated L-cystine solution to the desired concentration. […] Crystallization without additive was performed in an identical manner for comparison using a control solution from the same batch. The mass yields of L-cystine crystals were obtained by dividing the mass of L-cystine crystals (collected from growth solution by filtration) by the mass of L-cystine added in the growth solution.
Additives chosen for these studies were various proteins, poly-amino acids, and molecular mimics of L-cystine (see Table 1). The above procedure for hexagonal platelet crystallization was repeated until completion of the 75 min cooling period, at which point 29.5 g of solution was transferred to a 100 mL beaker containing 0.5 g of separately prepared additive solution to yield net concentrations of 2 mg/L additive and 0.7 g/L L-cystine. Additive solutions were replaced with deionized water of equivalent volume for control measurements. […]
L-cystine bulk crystallization was investigated in the presence of various polymers, urinary constituents, fish antifreeze proteins (AFPs), and L-cystine derivatives (i.e. structural mimics of L-cystine), which were analyzed as possible growth inhibitors of hexagonal L-cystine. The potency of each additive was assessed by comparing the difference in crystal yield (Table 1), which is equal to the mass of crystals formed in the presence of 2 mg/L additive (isolated with […]) divided by the total mass of L-cystine (700 mg/L).

[3] = pH 7, 25° C.; cited from earlier work

| SMILES | reduction of step velocity relative to the control [1] [%] | Step velocity ([1]; 0.5 g/L L-cystine, 25° C., static, without additive ~29 nm/min, independent of step height) [nm/min] | Yield (%) = (collected mass by filtration, >11 μm)/(total mass added) × 100% [2] [%] | solubility of L-cystine in water [3] [µM] |
| --- | --- | --- | --- | --- |
| NCCSSCCN [Cystamine, cystamine dihydrochloride, reference compound] | 36 | 18 ± 3 | 30 |  |
| N[C@@H](CSSC[C@H](N)C(=O)O)C(=O)O [L-cystine] |  |  |  | 400 to 700 |
